According to US9884063B2, “Amido-substituted azole compounds” (Bayer Pharma Aktiengesellschaft, priority 2014, dated 2018):
Counter-ions that a name gives are not always drawn.

System: wildtype Wnt signaling cascade
Assay: HEK293 TOP Assay (Super TopFlash luciferase reporter, Wnt-3a stimulated)
Assay type: cell-based
Conditions: Homo sapiens, HEK293, 16 h, HEK293 TOP reporter cell line, Wnt-3a at EC50, 16 hours incubation, compound dilution series 50 μM to 15 nM
Description: In order to discover and characterize small molecules which inhibit the wildtype Wnt pathway, a cellular reporter assay was employed. The corresponding assay cell was generated by transfection of the mammalian cell line HEK293 (ATCC, #CRL-1573) with the Super TopFlash vector (Morin, Science 275, 1997, 1787-1790; Molenaar et al., Cell 86 (3), 1996, 391-399). The HEK293 cell line is cultivated at 37° C. and 5% CO2 in DMEM (Life Technologies, #41965-039), supplemented with 2 mM glutamine, 20 mM HEPES, 1.4 mM pyruvate, 0.15% Na-bicarbonate and 10% foetal bovine serum (GIBCO, #10270). Stable transfectants were generated by selection with 300 μg/ml Hygromycin.
In preparation of the assay, the two cell lines were plated 24 hrs before beginning the test at 10000 cells per well in a 384 micro titre plate (MTP) in 30 μl growth medium. […] The recombinant human Wnt-3a was thereby applied between 2500 and 5 ng/ml in two-fold dilution steps.
Selective inhibitory activity for small molecules on the wildtype Wnt pathway was determined after parallel incubation of both (TOP and FOP) HEK293 reporter cell lines with a compound dilution series from 50 μM to 15 nM in steps of 3.16-fold dilutions in CAFTY buffer (130 mM sodium chloride, 5 mM potassium chloride, 20 mM HEPES, 1 mM magnesium chloride, 5 mM sodium bicarbonate, pH 7.4) containing 2 mM Ca^2+ and 0.01% BSA.
The compounds were thereby serially prediluted in 100% DMSO and thereafter 50 fold into the CAFTY compound dilution buffer (described above).

O=C(Nc1ccc(NC(=O)c2nc[nH]c2C(=O)N2CCC2)cc1)c1ccc(F)cc1 [Example 143, 5-(azetidin-1-ylcarbonyl)-N-{4-[(4-fluorobenzoyl)amino]phenyl}-1H-imidazole-4-carboxamide]
IC50: 29.5 µM

CN(C)C(=O)c1[nH]cnc1C(=O)Nc1ccc(NC(=O)c2ccc(F)cc2)cc1 [Example 144, N^4-{4-[(4-fluorobenzoyl)amino]phenyl}-N^5,N^5-dimethyl-1H-imidazole-4,5-dicarboxamide]
IC50: 50 µM

CC(C)CNC(=O)c1[nH]cnc1C(=O)Nc1ccc(NC(=O)c2ccc(F)cc2)cc1 [Example 146, N^4-{4-[(4-fluorobenzoyl)amino]phenyl}-N^5-isobutyl-1H-imidazole-4,5-dicarboxamide]
IC50: 5.15 µM

O=C(Nc1ccc(NC(=O)c2nc[nH]c2C(=O)NC(CO)CO)cc1)c1ccc(F)cc1 [Example 150, N^5-(1,3-dihydroxypropan-2-yl)-N^4-{4-[(4-fluorobenzoyl)amino]phenyl}-1H-imidazole-4,5-dicarboxamide]
IC50: 50 µM

O=C(Nc1ccc(NC(=O)c2nc[nH]c2C(=O)NCCN2CCOCC2)cc1)c1ccc(F)cc1 [Example 151, N^4-{4-[(4-fluorobenzoyl)amino]phenyl}-N^5-[2-(morpholin-4-yl)ethyl]-1H-imidazole-4,5-dicarboxamide]
IC50: 0.95 µM

CC(C)(CN1CCOCC1)NC(=O)c1[nH]cnc1C(=O)Nc1ccc(NC(=O)c2ccccc2Cl)cc1 [Example 154, N^4-{4-[(2-chlorobenzoyl)amino]phenyl}-N^5-[2-methyl-1-(morpholin-4-yl)propan-2-yl]-1H-imidazole-4,5-dicarboxamide]
IC50: 1.25 µM

CN1CCN(CCNC(=O)c2[nH]cnc2C(=O)Nc2ccc(NC(=O)c3ccc(F)cc3)cc2)CC1 [Example 161, N^4-{4-[(4-fluorobenzoyl)amino]phenyl}-N^5-[2-(4-methylpiperazin-1-yl)ethyl]-1H-imidazole-4,5-dicarboxamide]
IC50: 36.5 µM

O=C(Nc1ccc(NC(=O)c2nc[nH]c2C(=O)NC(CO)CO)cc1)c1ccc(F)cc1Cl [Example 172, N^4-{4-[(2-chloro-4-fluorobenzoyl)amino]phenyl}-N^5-(1,3-dihydroxypropan-2-yl)-1H-imidazole-4,5-dicarboxamide]
IC50: 2.25 µM

O=C(Nc1ccc(NC(=O)c2nc[nH]c2C(=O)NCCF)cc1)c1ccc(F)cc1 [Example 174, N^4-{4-[(4-fluorobenzoyl)amino]phenyl}-N^5-(2-fluoroethyl)-1H-imidazole-4,5-dicarboxamide]
IC50: 1.05 µM

O=C(Nc1ccc(NC(=O)c2nc[nH]c2C(=O)NCCN2CCC(O)CC2)cc1)c1ccc(F)cc1 [Example 178, N^4-{4-[(4-fluorobenzoyl)amino]phenyl}-N^5-[2-(4-hydroxypiperidin-1-yl)ethyl]-1H-imidazole-4,5-dicarboxamide]
IC50: 1.17 µM

CN1CCN(CCCNC(=O)c2[nH]cnc2C(=O)Nc2ccc(NC(=O)c3ccc(F)cc3)cc2)CC1 [Example 181, N^4-{4-[(4-fluorobenzoyl)amino]phenyl}-N^5-[3-(4-methylpiperazin-1-yl)propyl]-1H-imidazole-4,5-dicarboxamide]
IC50: 6.7 µM

CN1CCN(CCCNC(=O)c2[nH]cnc2C(=O)Nc2ccc(NC(=O)c3ccccc3Cl)cc2)CC1 [Example 192, N^4-{4-[(2-chlorobenzoyl)amino]phenyl}-N^5-[3-(4-methylpiperazin-1-yl)propyl]-1H-imidazole-4,5-dicarboxamide]
IC50: 0.46 µM

CN1CCN(NC(=O)c2[nH]cnc2C(=O)Nc2ccc(NC(=O)c3ccc(F)cc3)cc2)CC1 [Example 193, N^4-{4-[(4-fluorobenzoyl)amino]phenyl}-N^5-(4-methylpiperazin-1-yl)-1H-imidazole-4,5-dicarboxamide]
IC50: 5.7 µM

CC(CNC(=O)c1[nH]cnc1C(=O)Nc1ccc(NC(=O)c2ccc(F)cc2)cc1)N1CCN(C)CC1 (centres unmarked) [Example 205, N^4-{4-[(4-fluorobenzoyl)amino]phenyl}-N^5-[2-(4-methylpiperazin-1-yl)propyl]-1H-imidazole-4,5-dicarboxamide]
IC50: 2.65 µM

CNC(=O)c1nc[nH]c1C(=O)Nc1ccc(NC(=O)c2ccc(F)cc2O)cc1 [Example 245, N^5-{4-[(4-fluoro-2-hydroxybenzoyl)amino]phenyl}-N^4-methyl-1H-imidazole-4,5-dicarboxamide]
IC50: 50 µM

NC1CCN(C(=O)c2[nH]cnc2C(=O)Nc2ccc(NC(=O)c3ccc(F)cc3Cl)cc2)C1 (centres unmarked) [Example 285, 5-[(3-aminopyrrolidin-1-yl)carbonyl]-N-{4-[(2-chloro-4-fluorobenzoyl)amino]phenyl}-1H-imidazole-4-carboxamide hydrochloride salt]
IC50: 1.15 µM

O=C(Nc1ccc(NC(=O)c2nc[nH]c2C(=O)N2CCNCC2)cc1)c1ccc(F)cc1Cl [Example 289, N-{4-[(2-chloro-4-fluorobenzoyl)amino]phenyl}-5-(piperazin-1-ylcarbonyl)-1H-imidazole-4-carb oxamide hydrochloric acid salt]
IC50: 2.7 µM

CNC(=O)c1[nH]cnc1C(=O)Nc1ccc(NC(=O)c2ccc(F)cc2Cl)c(OC(F)(F)F)c1 [Example 291, N^4-{4-[(2-chloro-4-fluorobenzoyl)amino]-3-(trifluoromethoxy)phenyl}-N^5-methyl-1H-imidazole-4,5-dicarboxamide]
IC50: 14.3 µM

O=C(Nc1ccc(NC(=O)c2nc[nH]c2C(=O)NCC(F)(F)F)cc1OC(F)(F)F)c1ccc(F)cc1Cl [Example 292, N^4-{4-[(2-chloro-4-fluorobenzoyl)amino]-3-(trifluoromethoxy)phenyl}-N^5-(2,2,2-trifluoroethyl)-1H-imidazole-4,5-dicarboxamide]
IC50: 11 µM

CC1CN(CCNC(=O)c2[nH]cnc2C(=O)Nc2ccc(NC(=O)c3ccc(F)cc3Cl)cc2)CC(C)O1 (centres unmarked) [Example 301, N^4-{4-[(2-4-fluorochlorobenzoyl)amino]phenyl}-N^5-[2-(2,6-dimethylmorpholin-4-yl)ethyl]-1H-imidazole-4,5-dicarboxamide]
IC50: 1.2 µM

CNC(=O)c1nc[nH]c1C(=O)Nc1ccc(NC(=O)c2ccc(OC)cc2)cc1 [Example 304, N^5-{4-[(4-methoxybenzoyl)amino]phenyl}-N^4-methyl-1H-imidazole-4,5-dicarboxamide]
IC50: 11.4 µM

CNC(=O)c1nc[nH]c1C(=O)Nc1ccc(NC(=O)c2cccc(OC)c2)cc1 [Example 305, N^5-{4-[(3-methoxybenzoyl)amino]phenyl}-N^4-methyl-1H-imidazole-4,5-dicarboxamide]
IC50: 31.5 µM

CNC(=O)c1nc[nH]c1C(=O)Nc1ccc(NC(=O)c2ccc(Cl)cc2)cc1 [Example 306, N^5-{4-[(4-chlorobenzoyl)amino]phenyl}-N^4-methyl-1H-imidazole-4,5-dicarboxamide]
IC50: 3.15 µM

CNC(=O)c1nc[nH]c1C(=O)Nc1ccc(NC(=O)c2ccc(Cl)c(Cl)c2)cc1 [Example 308, N^5-{4-[(3,4-dichlorobenzoyl)amino]phenyl}-N^4-methyl-1H-imidazole-4,5-dicarboxamide]
IC50: 3.35 µM

CNC(=O)c1nc[nH]c1C(=O)Nc1ccc(NC(=O)c2ccc(Cl)cc2OC)cc1 [Example 310, N^5-{4-[(4-chloro-2-methoxybenzoyl)amino]phenyl}-N^4-methyl-1H-imidazole-4,5-dicarboxamide]
IC50: 10.5 µM

CNC(=O)c1nc[nH]c1C(=O)Nc1ccc(NC(=O)c2cccc(C#N)c2)cc1 [Example 311, N^5-{4-[(3-cyanobenzoyl)amino]phenyl}-N^4-methyl-1H-imidazole-4,5-dicarboxamide]
IC50: 50 µM

CNC(=O)c1nc[nH]c1C(=O)Nc1ccc(NC(=O)c2ccoc2)cc1 [Example 312, N^5-{4-[(furan-3-ylcarbonyl)amino]phenyl}-N^4-methyl-1H-imidazole-4,5-dicarboxamide]
IC50: 50 µM

CNC(=O)c1nc[nH]c1C(=O)Nc1ccc(NC(=O)c2ccc(C(F)(F)F)cc2)cc1 [Example 316, N^4-methyl-N^5-(4-{[4-(trifluoromethyl)benzoyl]amino}phenyl)-1H-imidazole-4,5-dicarboxamide]
IC50: 13.5 µM

CNC(=O)c1nc[nH]c1C(=O)Nc1ccc(NC(=O)c2cccc(N(C)C)c2)cc1 [Example 317, N^5-(4-{[3-(dimethylamino)benzoyl]amino}phenyl)-N^4-methyl-1H-imidazole-4,5-dicarboxamide]
IC50: 50 µM

CNC(=O)c1nc[nH]c1C(=O)Nc1ccc(NC(=O)c2cc(F)ccc2F)cc1 [Example 318, N^5-{4-[(2,5-difluorobenzoyl)amino]phenyl}-N^4-methyl-1H-imidazole-4,5-dicarboxamide]
IC50: 1.3 µM

CNC(=O)c1nc[nH]c1C(=O)Nc1ccc(NC(=O)c2ccc(F)c(F)c2)cc1 [Example 320, N^5-{4-[(3,4-difluorobenzoyl)amino]phenyl}-N^4-methyl-1H-imidazole-4,5-dicarboxamide]
IC50: 4.8 µM

CNC(=O)c1nc[nH]c1C(=O)Nc1ccc(NC(=O)c2cc(F)cc(F)c2)cc1 [Example 321, N^5-{4-[(3,5-difluorobenzoyl)amino]phenyl}-N^4-methyl-1H-imidazole-4,5-dicarboxamide]
IC50: 50 µM
